Consider five molecules from ChEMBL document CHEMBL3390848, “Affinity selection and sequence-activity relationships of HIV-1 membrane fusion inhibitors directed at the drug-resistant variants” (Medchemcomm, 2010).

Experiment [1] has as its system Human immunodeficiency virus 1. The experiment in a line: Antiviral activity against HIV1 NL4-3 harboring gp41 D36G mutant infected in human HeLa cells expressing CD4-LTR-beta-gal assessed as inhibition of viral replication after 48 hrs by MAGI assay. Type of experiment: functional, organism-based.
For experiment [2], the system named is Human immunodeficiency virus 1. The experiment in a line: Thermal stability of HIV1 envelope glycoprotein gp41 His-tagged N-terminal heptad repeat N36-drug complex assessed as thermal unfolding transition state by measuring molar ellipticity at 4 to 90 degC by circular dichroic spectra analysis.
Experiment [3] concerns Human immunodeficiency virus 1. The experiment in a line: Binding affinity to HIV1 His-tagged N-terminal heptad repeat of envelope glycoprotein gp41 assessed as recovery of N36-drug complex after 2 hrs by LC-MS analysis. Also noted: concentration or dose not given beside the values.

Residues, ends and D or L forms follow the SMILES beside them.

Broadly, the EC50 is the concentration at which the effect is half-maximal. The Tm is the temperature at the midpoint of the melting transition.

Regarding `CC[C@H](C)[C@H](NC(=O)[C@H](CC(C)C)NC(=O)[C@H](CCC(=O)O)NC(=O)[C@H](CCC(=O)O)NC(=O)[C@@H](NC(=O)[C@H](CCCCN)NC(=O)[C@H](CCCCN)NC(=O)[C@@H](NC(=O)[C@H](Cc1ccc(O)cc1)NC(=O)[C@H](CCC(=O)O)NC(=O)[C@H](CCC(=O)O)NC(=O)[C@@H](NC(=O)[C@H](CCCCN)NC(=O)[C@H](CCCCN)NC(=O)[C@H](CC(=O)O)NC(=O)[C@H](Cc1c[nH]c2ccccc12)NC(=O)[C@H](CCC(=O)O)NC(=O)[C@H](CCC(=O)O)NC(=O)[C@H](Cc1c[nH]c2ccccc12)NC(C)=O)[C@@H](C)CC)[C@@H](C)O)[C@@H](C)CC)C(=O)N[C@@H](CCCCN)C(=O)N[C@@H](CCCCN)C(=O)N[C@@H](CO)C(=O)N[C@@H](CCC(=O)O)C(=O)N[C@@H](CCC(=O)O)C(=O)N[C@@H](C)C(=O)N[C@@H](CCC(N)=O)C(=O)N[C@@H](CCCCN)C(=O)N[C@@H](CCCCN)C(=O)N[C@@H](CC(N)=O)C(=O)N[C@@H](CCC(=O)O)C(=O)N[C@@H](CCC(=O)O)C(=O)N[C@@H](CCC(=O)O)C(=O)N[C@@H](CC(C)C)C(=O)N[C@@H](CCCCN)C(=O)N[C@@H](CCCCN)C(N)=O` (Ac-WEEWDKKIEEYTKKIEELIKKSEEAQKKNEEELKK-NH2), the EC50 in experiment [1] amounted to 1.6 nM. In addition, the melting temperature (Tm) in experiment [2] stood at 76.1 °C. Also, the Activity in experiment [3] came to 6.6%.

Regarding `CC[C@H](C)[C@H](NC(=O)[C@H](CC(C)C)NC(=O)[C@H](CCC(=O)O)NC(=O)[C@H](CCC(=O)O)NC(=O)[C@@H](NC(=O)[C@H](CCCCN)NC(=O)[C@H](CCCCN)NC(=O)[C@@H](NC(=O)[C@H](Cc1ccc(O)cc1)NC(=O)[C@H](CCC(=O)O)NC(=O)[C@H](CCC(=O)O)NC(=O)[C@@H](NC(=O)[C@H](CCCCN)NC(=O)[C@H](CCCCN)NC(=O)[C@H](CC(=O)O)NC(=O)[C@H](Cc1c[nH]c2ccccc12)NC(=O)[C@H](CCC(=O)O)NC(=O)[C@H](CCC(=O)O)NC(=O)[C@H](Cc1c[nH]c2ccccc12)NC(C)=O)[C@@H](C)CC)[C@@H](C)O)[C@@H](C)CC)C(=O)N[C@@H](CCCCN)C(=O)N[C@@H](CCCCN)C(=O)N[C@@H](CO)C(=O)N[C@@H](CCC(=O)O)C(=O)N[C@@H](CCC(=O)O)C(=O)N[C@@H](CC(=O)O)C(=O)N[C@@H](CCC(N)=O)C(=O)N[C@@H](CCCCN)C(=O)N[C@@H](CCCCN)C(=O)N[C@@H](CC(N)=O)C(=O)N[C@@H](CCC(=O)O)C(=O)N[C@@H](CCC(=O)O)C(=O)N[C@@H](CCC(=O)O)C(=O)N[C@@H](CC(C)C)C(=O)N[C@@H](CCCCN)C(=O)N[C@@H](CCCCN)C(N)=O` (Ac-WEEWDKKIEEYTKKIEELIKKSEEDQKKNEEELKK-NH2), in experiment [1], the concentration giving a half-maximal response (EC50) is 2.9 nM. Moreover, the melting temperature (Tm) in experiment [2] is 75.1 °C. In addition, the Activity in experiment [3] was determined as 4.5%.

On to `CC[C@H](C)[C@H](NC(=O)[C@H](CC(C)C)NC(=O)[C@H](CCC(=O)O)NC(=O)[C@H](CCC(=O)O)NC(=O)[C@@H](NC(=O)[C@H](CCCCN)NC(=O)[C@H](CCCCN)NC(=O)[C@@H](NC(=O)[C@H](Cc1ccc(O)cc1)NC(=O)[C@H](CCC(=O)O)NC(=O)[C@H](CCC(=O)O)NC(=O)[C@@H](NC(=O)[C@H](CCCCN)NC(=O)[C@H](CCCCN)NC(=O)[C@H](CC(=O)O)NC(=O)[C@H](Cc1c[nH]c2ccccc12)NC(=O)[C@H](CCC(=O)O)NC(=O)[C@H](CCC(=O)O)NC(=O)[C@H](Cc1c[nH]c2ccccc12)NC(C)=O)[C@@H](C)CC)[C@@H](C)O)[C@@H](C)CC)C(=O)N[C@@H](CCCCN)C(=O)N[C@@H](CCCCN)C(=O)N[C@@H](CO)C(=O)N[C@@H](CCC(=O)O)C(=O)N[C@@H](CCC(=O)O)C(=O)N[C@@H](CCC(=O)O)C(=O)N[C@@H](CCC(N)=O)C(=O)N[C@@H](CCCCN)C(=O)N[C@@H](CCCCN)C(=O)N[C@@H](CC(N)=O)C(=O)N[C@@H](CCC(=O)O)C(=O)N[C@@H](CCC(=O)O)C(=O)N[C@@H](CCC(=O)O)C(=O)N[C@@H](CC(C)C)C(=O)N[C@@H](CCCCN)C(=O)N[C@@H](CCCCN)C(N)=O` (Ac-WEEWDKKIEEYTKKIEELIKKSEEEQKKNEEELKK-NH2), for which the EC50 in experiment [1] was found to be 2.4 nM. Moreover, the melting temperature (Tm) in experiment [2] came to 76.2 °C. For the same molecule, the Activity in experiment [3] was 4.3%.

Turning to `CC[C@H](C)[C@H](NC(=O)[C@H](CC(C)C)NC(=O)[C@H](CCC(=O)O)NC(=O)[C@H](CCC(=O)O)NC(=O)[C@@H](NC(=O)[C@H](CCCCN)NC(=O)[C@H](CCCCN)NC(=O)[C@@H](NC(=O)[C@H](Cc1ccc(O)cc1)NC(=O)[C@H](CCC(=O)O)NC(=O)[C@H](CCC(=O)O)NC(=O)[C@@H](NC(=O)[C@H](CCCCN)NC(=O)[C@H](CCCCN)NC(=O)[C@H](CC(=O)O)NC(=O)[C@H](Cc1c[nH]c2ccccc12)NC(=O)[C@H](CCC(=O)O)NC(=O)[C@H](CCC(=O)O)NC(=O)[C@H](Cc1c[nH]c2ccccc12)NC(C)=O)[C@@H](C)CC)[C@@H](C)O)[C@@H](C)CC)C(=O)N[C@@H](CCCCN)C(=O)N[C@@H](CCCCN)C(=O)N[C@@H](CO)C(=O)N[C@@H](CCC(=O)O)C(=O)N[C@@H](CCC(=O)O)C(=O)N[C@@H](Cc1ccccc1)C(=O)N[C@@H](CCC(N)=O)C(=O)N[C@@H](CCCCN)C(=O)N[C@@H](CCCCN)C(=O)N[C@@H](CC(N)=O)C(=O)N[C@@H](CCC(=O)O)C(=O)N[C@@H](CCC(=O)O)C(=O)N[C@@H](CCC(=O)O)C(=O)N[C@@H](CC(C)C)C(=O)N[C@@H](CCCCN)C(=O)N[C@@H](CCCCN)C(N)=O` (Ac-WEEWDKKIEEYTKKIEELIKKSEEFQKKNEEELKK-NH2), in experiment [1], the half-maximal effective concentration (EC50) is 2.6 nM. Further, in experiment [2], the Tm stood at 76.7 °C. Also, the Activity in experiment [3] amounted to 5.7%.

Consider `CC[C@H](C)[C@H](NC(=O)[C@H](CC(C)C)NC(=O)[C@H](CCC(=O)O)NC(=O)[C@H](CCC(=O)O)NC(=O)[C@@H](NC(=O)[C@H](CCCCN)NC(=O)[C@H](CCCCN)NC(=O)[C@@H](NC(=O)[C@H](Cc1ccc(O)cc1)NC(=O)[C@H](CCC(=O)O)NC(=O)[C@H](CCC(=O)O)NC(=O)[C@@H](NC(=O)[C@H](CCCCN)NC(=O)[C@H](CCCCN)NC(=O)[C@H](CC(=O)O)NC(=O)[C@H](Cc1c[nH]c2ccccc12)NC(=O)[C@H](CCC(=O)O)NC(=O)[C@H](CCC(=O)O)NC(=O)[C@H](Cc1c[nH]c2ccccc12)NC(C)=O)[C@@H](C)CC)[C@@H](C)O)[C@@H](C)CC)C(=O)N[C@@H](CCCCN)C(=O)N[C@@H](CCCCN)C(=O)N[C@@H](CO)C(=O)N[C@@H](CCC(=O)O)C(=O)N[C@@H](CCC(=O)O)C(=O)NCC(=O)N[C@@H](CCC(N)=O)C(=O)N[C@@H](CCCCN)C(=O)N[C@@H](CCCCN)C(=O)N[C@@H](CC(N)=O)C(=O)N[C@@H](CCC(=O)O)C(=O)N[C@@H](CCC(=O)O)C(=O)N[C@@H](CCC(=O)O)C(=O)N[C@@H](CC(C)C)C(=O)N[C@@H](CCCCN)C(=O)N[C@@H](CCCCN)C(N)=O` (Ac-WEEWDKKIEEYTKKIEELIKKSEEGQKKNEEELKK-NH2), for which the EC50 in experiment [1] was 2.3 nM. In addition, the midpoint of thermal melting (Tm) in experiment [2] was 71 °C. Besides, in experiment [3], the Activity was 3.8%.
